Activity calls are given as the source filed them. The rule behind the calls is not given here.
Assays:
Rattus norvegicus = experiment: In vivo stimulation of [3H]epibatidine binding to nicotinic acetylcholine receptor in rat prefrontal cortex relative to control; assay type: functional
[1] = biological target: T1, Neuronal acetylcholine receptor; alpha4/beta2 (Rattus norvegicus) (UniProt P09483+P12390); experiment: Stimulation of [3H]epibatidine binding to alpha4beta2 nAChR in rat PC12 cells at 100 uM preincubated for 24 hrs followed by radioligand addition measured after 90 mins by liquid scintillation spectrometric analysis; assay type: cell-based; settings: PC-12
[2] = biological target: T2, Neuronal acetylcholine receptor; alpha4/beta2 (Rattus norvegicus, UniProt P09483+P12390); experiment: Displacement of [3H]epibatidine from alpha4beta2 nAChR in Sprague-Dawley rat brain cortical membrane after 3 hrs; assay type: tissue-based
T2 sequence (P09483 whole entry): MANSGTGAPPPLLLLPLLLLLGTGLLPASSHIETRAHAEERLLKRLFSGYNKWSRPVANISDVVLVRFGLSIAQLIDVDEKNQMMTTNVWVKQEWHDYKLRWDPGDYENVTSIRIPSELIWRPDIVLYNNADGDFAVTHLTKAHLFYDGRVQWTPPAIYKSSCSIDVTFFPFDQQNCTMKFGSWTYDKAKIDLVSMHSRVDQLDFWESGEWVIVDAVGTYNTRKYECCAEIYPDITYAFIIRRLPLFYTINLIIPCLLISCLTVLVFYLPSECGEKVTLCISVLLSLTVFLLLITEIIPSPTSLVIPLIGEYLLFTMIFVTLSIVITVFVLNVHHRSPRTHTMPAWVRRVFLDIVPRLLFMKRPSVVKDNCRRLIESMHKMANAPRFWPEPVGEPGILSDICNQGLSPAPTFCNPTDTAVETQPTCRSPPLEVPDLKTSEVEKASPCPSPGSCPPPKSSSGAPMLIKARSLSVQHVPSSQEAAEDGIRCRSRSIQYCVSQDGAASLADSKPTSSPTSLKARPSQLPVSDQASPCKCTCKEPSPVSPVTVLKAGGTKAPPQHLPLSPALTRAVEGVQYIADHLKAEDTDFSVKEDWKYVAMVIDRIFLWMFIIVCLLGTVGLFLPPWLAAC
T2 sequence (P12390 whole entry): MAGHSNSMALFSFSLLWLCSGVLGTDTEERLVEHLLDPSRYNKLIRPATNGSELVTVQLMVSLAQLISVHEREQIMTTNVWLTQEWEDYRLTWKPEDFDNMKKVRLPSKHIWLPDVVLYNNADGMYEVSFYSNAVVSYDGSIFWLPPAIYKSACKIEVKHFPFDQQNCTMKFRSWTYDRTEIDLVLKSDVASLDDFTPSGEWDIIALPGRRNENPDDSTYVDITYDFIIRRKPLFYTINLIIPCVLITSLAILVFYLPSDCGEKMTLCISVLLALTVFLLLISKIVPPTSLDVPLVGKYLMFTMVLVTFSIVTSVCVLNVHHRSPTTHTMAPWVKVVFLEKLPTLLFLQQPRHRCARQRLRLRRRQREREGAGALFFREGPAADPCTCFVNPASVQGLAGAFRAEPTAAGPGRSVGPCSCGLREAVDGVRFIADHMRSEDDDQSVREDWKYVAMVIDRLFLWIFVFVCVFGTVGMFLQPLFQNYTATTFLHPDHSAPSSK

[3] = biological target: Sodium-dependent serotonin transporter (Rattus norvegicus, UniProt P31652); experiment: Displacement of [3H]-citalopram from SERT in Sprague-Dawley rat cortex, striatum and cerebellum-dissected brain after 60 mins by scintillation counting analysis; assay type: tissue-based
Sequence of Sodium-dependent serotonin transporter (P31652 whole entry): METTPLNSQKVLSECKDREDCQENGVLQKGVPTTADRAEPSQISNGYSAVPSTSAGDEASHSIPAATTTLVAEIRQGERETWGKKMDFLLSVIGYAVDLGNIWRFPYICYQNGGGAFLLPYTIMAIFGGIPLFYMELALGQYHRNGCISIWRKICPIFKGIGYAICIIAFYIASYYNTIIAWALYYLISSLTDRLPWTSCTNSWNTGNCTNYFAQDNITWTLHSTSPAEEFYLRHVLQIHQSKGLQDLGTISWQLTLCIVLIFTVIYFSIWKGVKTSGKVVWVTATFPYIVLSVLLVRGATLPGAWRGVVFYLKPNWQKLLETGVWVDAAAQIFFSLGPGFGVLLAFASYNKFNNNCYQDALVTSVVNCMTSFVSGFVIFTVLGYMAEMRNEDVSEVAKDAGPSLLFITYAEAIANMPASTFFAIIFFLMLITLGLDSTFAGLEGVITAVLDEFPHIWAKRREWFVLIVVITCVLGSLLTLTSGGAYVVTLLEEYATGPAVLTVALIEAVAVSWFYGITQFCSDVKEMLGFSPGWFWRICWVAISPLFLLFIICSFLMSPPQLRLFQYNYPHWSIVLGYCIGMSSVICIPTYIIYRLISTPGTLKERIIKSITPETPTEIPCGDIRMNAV

[4] = biological target: T1, Neuronal acetylcholine receptor; alpha4/beta2 (Rattus norvegicus); experiment: (§1) Displacement of [3H]epibatidine from alpha4beta2 nAChR in Sprague-Dawley rat brain cortical membrane after 3 hrs by liquid scintillation spectrometric analysis; assay type: tissue-based
[5] = biological target: T2, Neuronal acetylcholine receptor; alpha4/beta2; experiment: as §1; assay type: tissue-based

| Compound | Activity (Rattus norvegicus) [%] | Activity [1] | Ki [2] [µM] | Ki [3] [µM] | inhibition [4] | IC50 [5] [µM] |
| --- | --- | --- | --- | --- | --- | --- |
| CN1CCC[C@H]1c1cccnc1 [NICOTINE] | 30 |  |  |  |  |  |
| CN[C@H](C)Cc1ccc2c(c1)OCO2 |  | Active | 0.63 | 24.5 | Dose-dependent effect | 13.4 |
| CN[C@@H](C)Cc1ccc2c(c1)OCO2 |  | inactive | 8.21 |  | Dose-dependent effect | 173 |
| CNC(C)Cc1ccc2c(c1)OCO2 (racemic) [MIDOMAFETAMINE] | 35 | Active | 1.44 |  | Dose-dependent effect | 30.4 |
